From US11952378B1, “Pyrrolo[2,3-c]isoquinoline-1,2-dione compounds as CK2 inhibitors” (KING FAISAL UNIVERSITY, priority 2023, dated 2024) come the findings set out here.

One assay concerns HCT116 (colon). Nature of the assay: In vitro cytotoxic activity assay (MTT), HCT116. As to conditions: Homo sapiens, HCT-116; HCT116 (colon) cells, exposed for 96 hours; read-out: IC50, concentration eliciting 50% inhibition of cell proliferation. The class given is cell-based. On the procedure:
(§1) Compounds 1-16 were screened for their in vitro cytotoxic behavior using a 3-(4,5-dimethyl-thiazol-2-yl)-2,5-diphenyltetrazolium bromide (MTT) assay against selected cancer human cell lines consisting of PC3 (prostate), HCT116 (colon), A375 (melanoma), H1299 (lung), MIAPaCa-2 (pancreas), HL60 (leukemia), MCF7 (breast), MDA-MB-231 (breast) (T. Mosmann, J. Immunol. Meth., 1983, 65, 55-63). The cells were cultured at 37° C. in RMPI1640 medium supplemented with 10% fetal bovine serum, 50 IU/mL penicillin, and 50 μg/mL streptomycin in a 5% CO2 incubator. All cells were sub-cultured 3 times/week by trypsinisation. Viable cells were seeded and allowed to adhere for 12 h before a test drug was added in 96-well plates at an initial density of 1.0×10^5 cells/mL. Tumor cell lines were separately exposed to various concentrations of the tested compounds followed by incubation at a temperature of 37° C. during 96 h inside a medium of fresh RMPI 1640. Cells were subsequently incubated at 37° C. using MTT at 0.5 mg/mL during 4 hours. After removal of supernatant, formazan crystals were dissolved in isopropanol and the optical density was measured at 570 nm. CX-4945 was used as a positive control.

The next assay relates to HL60 (leukemia). Briefly: In vitro cytotoxic activity assay (MTT), HL60. The class given is cell-based. As to conditions: Homo sapiens, HL-60; HL60 (leukemia) cells, exposed for 96 hours; read-out: IC50, concentration eliciting 50% inhibition of cell proliferation. On the procedure:
as §1

In the next assay the test system is MDA-MB-231 (breast). Nature of the assay: In vitro cytotoxic activity assay (MTT), MDA-MB-231. Format: cell-based. Particulars: Homo sapiens; MDA-MB-231 (breast) cells, exposed for 96 hours; read-out: IC50, concentration eliciting 50% inhibition of cell proliferation. The procedure: as §1
The subject of a further assay is H1299 (lung). Briefly: In vitro cytotoxic activity assay (MTT), H1299. Format: cell-based. Particulars: Homo sapiens, NCI-H1299; H1299 (lung) cells, exposed for 96 hours; read-out: IC50, concentration eliciting 50% inhibition of cell proliferation. The procedure:
as §1

Assay [1] deals with T1, recombinant human CK2 (RRββ-holoenzyme) (Homo sapiens, UniProt P68400).
T1 construct: purchased Millipore
T1 sequence (P68400 whole entry): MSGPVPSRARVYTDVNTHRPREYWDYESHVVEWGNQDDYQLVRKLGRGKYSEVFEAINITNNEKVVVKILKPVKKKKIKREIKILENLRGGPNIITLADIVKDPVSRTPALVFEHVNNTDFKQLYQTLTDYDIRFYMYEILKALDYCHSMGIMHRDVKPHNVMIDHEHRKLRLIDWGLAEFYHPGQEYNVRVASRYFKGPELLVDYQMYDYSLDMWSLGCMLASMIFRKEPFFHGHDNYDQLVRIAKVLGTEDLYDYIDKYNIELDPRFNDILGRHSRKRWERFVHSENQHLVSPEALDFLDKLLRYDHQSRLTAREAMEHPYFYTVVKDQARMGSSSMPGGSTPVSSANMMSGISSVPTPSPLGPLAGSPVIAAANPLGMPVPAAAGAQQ
T1 sequence (P67870 whole entry partner): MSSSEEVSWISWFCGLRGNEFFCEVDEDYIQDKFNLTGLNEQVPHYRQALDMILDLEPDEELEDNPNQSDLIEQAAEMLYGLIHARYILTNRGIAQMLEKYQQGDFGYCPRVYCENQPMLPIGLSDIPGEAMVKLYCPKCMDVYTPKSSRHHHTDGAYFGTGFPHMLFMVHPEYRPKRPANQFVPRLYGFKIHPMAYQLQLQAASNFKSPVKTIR
Briefly: CK2 Kinase Assay ([γ-33P]ATP, substrate peptide RRRDDDSDDD). Particulars: final ATP concentration 15 μM, 10 minutes at 30° C.; read-out: protein kinase CK2 IC50. Format: biochemical. On the procedure:
CK2 Kinase Assay was conducted using the previously described protocol (Pierre F. et al; J. Med. Chem. 2011, 54, 635-654). The tested compounds in aqueous solution were added at a volume of 10 μL to a reaction mixture comprising 10 μL of assay dilution buffer (ADB; 20 mM MOPS, pH 7.2, 25 mM β-glycerol phosphate, 5 mM EGTA, 1 mM sodium orthovanadate, and 1 mM dithiothreitol), 10 μL of substrate peptide (RRRDDDSDDD, dissolved in ADB at a concentration of 1 mM), 10 μL of recombinant human CK2 (RRββ-holoenzyme, 25 ng dissolved in ADB; Millipore). Reactions were initiated by the addition of 10 μL of ATP solution (90% 75 mMMgCl2, 75 μM ATP (final ATP concentration: 15 μM) dissolved in ADB; 10% [γ-33P] ATP (stock 1 mCi/100 μL; 3000 Ci/mmol (Perkin-Elmer) and maintained for 10 minutes at 30° C. The reactions were quenched with 100 μL of 0.75% phosphoric acid and then transferred to and filtered through a phosphor cellulose filter plate (Millipore). After washing each well five times with 0.75% phosphoric acid, the plate was dried under vacuum for 5 min and, following the addition of 15 μL of scintillation fluid to each well, the residual radioactivity was measured using a Wallac luminescence counter. The IC50 values were derived from eight concentrations of test inhibitors.

For a further assay, the system named is MCF7 (breast). Nature of the assay: In vitro cytotoxic activity assay (MTT), MCF7. The class given is cell-based. Particulars: Homo sapiens; MCF7 (breast) cells, exposed for 96 hours; read-out: IC50, concentration eliciting 50% inhibition of cell proliferation. The procedure: as §1
For a further assay, the system named is MIAPaCa-2 (pancreas). Nature of the assay: In vitro cytotoxic activity assay (MTT), MIAPaCa-2. The class given is cell-based. As to conditions: Homo sapiens, MIA PaCa-2; MIAPaCa-2 (pancreas) cells, exposed for 96 hours; read-out: IC50, concentration eliciting 50% inhibition of cell proliferation. The procedure: as §1
In the next assay the test system is PC3 (prostate). Nature of the assay: In vitro cytotoxic activity assay (MTT), PC3. The class given is cell-based. As to conditions: Homo sapiens, Prostate cell; PC3 (prostate) cells, exposed for 96 hours; read-out: IC50, concentration eliciting 50% inhibition of cell proliferation. On the procedure: as §1
The next assay deals with A375 (melanoma). Briefly: In vitro cytotoxic activity assay (MTT), A375. Format: cell-based. Particulars: Homo sapiens, A-375; A375 (melanoma) cells, exposed for 96 hours; read-out: IC50, concentration eliciting 50% inhibition of cell proliferation. On the procedure:
as §1

For `O=C1Nc2nc(Nc3cccc(Cl)c3)c3cc(C(=O)O)ccc3c2C1=O` [Compound 1, 5-((3-chlorophenyl)amino)-1,2-dioxo-2,3-dihydro-1H-pyrrolo[2,3-c]isoquinoline-7-carboxylic Acid], the IC50 in the assay on HCT116 (colon) stood at 1300 nM; in the assay with HL60 (leukemia), 3400 nM; in the assay with MDA-MB-231 (breast), 4100 nM; with H1299 (lung) it was 1900 nM; in [1], 55 nM; in the assay with MCF7 (breast), 5500 nM. The IC50 with MIAPaCa-2 (pancreas) amounted to 1300 nM; with PC3 (prostate), 1200 nM; in the assay on A375 (melanoma), 2700 nM.
